What was measured:
Experiment in all cases: relative viability (nuclei count vs DMSO), 5 days (fraction); higher = more cells survive
NCI-H1563 = test system: NCI-H1563
How it was run: (§1)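 Cells from lung cancer lines were seeded into 1536-well plates and, one day later, dosed by pin tool. Treatments were either a single drug or a fixed dose of an anchor drug with five library-drug doses (not always all listed) in √10 steps. After 5 days, nuclei were stained in a one-step fixation (final 0.05% Triton X-100, 1% formaldehyde, 1 ug/ml Hoechst) and counted on 4× images, and relative viability is the treated-to-vehicle nuclei ratio, as the median of duplicate plates.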

NCI-H650 = test system: NCI-H650
How it was run: as §1

NCI-H3122 = test system: NCI-H3122
How it was run: as §1

NCI-H2126 = test system: NCI-H2126
How it was run: as §1

NCI-H1755 = test system: NCI-H1755
How it was run: as §1

LU99A = test system: LU99A
How it was run: as §1

NCI-H1437 = test system: NCI-H1437
How it was run: as §1

BEN = test system: BEN
How it was run: as §1

HCC-44 = test system: HCC-44
How it was run: as §1

HCC-15 = test system: HCC-15
How it was run: as §1

NCI-H727 = test system: NCI-H727
How it was run: as §1

NCI-H2023 = test system: NCI-H2023
How it was run: as §1

NCI-H1395 = test system: NCI-H1395
How it was run: as §1

NCI-H1734 = test system: NCI-H1734
How it was run: as §1

SW 1573 = test system: SW 1573
How it was run: as §1

NCI-H1915 = test system: NCI-H1915
How it was run: as §1

LC-2-ad = test system: LC-2-ad
How it was run: as §1

NCI-H2170 = test system: NCI-H2170
How it was run: as §1

NCI-H358 = test system: NCI-H358
How it was run: as §1

EMC-BAC-2 = test system: EMC-BAC-2
How it was run: as §1

HOP-62 = test system: HOP-62
How it was run: as §1

SMILES: Cc1csc(=NC2CCCCC2)n1/N=C/c1ccc(O)c(O)c1O [MIM1] + CS(=O)(=O)CCNCc1ccc(-c2ccc3ncnc(Nc4ccc(OCc5cccc(F)c5)c(Cl)c4)c3c2)o1 [Lapatinib] (partner 2 µM)
- relative viability (NCI-H1563; first compound 0.2 µM): 0.903
- relative viability (NCI-H1563; first compound 0.6325 µM): 1.04
- relative viability (NCI-H1563; first compound 2 µM): 0.853
- relative viability (NCI-H1563; first compound 6.325 µM): 0.825
- relative viability (NCI-H1563; first compound 20 µM): 0.462
- relative viability (NCI-H650; first compound 0.2 µM): 0.976
- relative viability (NCI-H650; first compound 0.6325 µM): 0.737
- relative viability (NCI-H650; first compound 2 µM): 0.897
- relative viability (NCI-H650; first compound 6.325 µM): 0.791
- relative viability (NCI-H650; first compound 20 µM): 0.235
- relative viability (NCI-H3122; first compound 0.2 µM): 1.02
- relative viability (NCI-H3122; first compound 0.6325 µM): 1.07
- relative viability (NCI-H3122; first compound 2 µM): 1.01
- relative viability (NCI-H3122; first compound 6.325 µM): 0.859
- relative viability (NCI-H3122; first compound 20 µM): 0.304
- relative viability (NCI-H2126; first compound 0.2 µM): 0.763
- relative viability (NCI-H2126; first compound 0.6325 µM): 0.72
- relative viability (NCI-H2126; first compound 2 µM): 0.77
- relative viability (NCI-H2126; first compound 6.325 µM): 0.679
- relative viability (NCI-H2126; first compound 20 µM): 0.339
- relative viability (NCI-H1755; first compound 0.2 µM): 1.04
- relative viability (NCI-H1755; first compound 0.6325 µM): 0.973
- relative viability (NCI-H1755; first compound 2 µM): 1.03
- relative viability (NCI-H1755; first compound 6.325 µM): 0.722
- relative viability (NCI-H1755; first compound 20 µM): 0.251
- relative viability (LU99A; first compound 0.2 µM): 1.08
- relative viability (LU99A; first compound 0.6325 µM): 0.894
- relative viability (LU99A; first compound 2 µM): 0.779
- relative viability (LU99A; first compound 6.325 µM): 0.915
- relative viability (LU99A; first compound 20 µM): 0.282
- relative viability (NCI-H1437; first compound 0.2 µM): 0.761
- relative viability (NCI-H1437; first compound 0.6325 µM): 0.672
- relative viability (NCI-H1437; first compound 2 µM): 0.91
- relative viability (NCI-H1437; first compound 6.325 µM): 0.456
- relative viability (NCI-H1437; first compound 20 µM): 0.148
- relative viability (BEN; first compound 0.2 µM): 0.732
- relative viability (BEN; first compound 0.6325 µM): 0.674
- relative viability (BEN; first compound 2 µM): 0.843
- relative viability (BEN; first compound 6.325 µM): 0.622
- relative viability (BEN; first compound 20 µM): 0.193
- relative viability (HCC-44; first compound 0.2 µM): 1.07
- relative viability (HCC-44; first compound 0.6325 µM): 0.969
- relative viability (HCC-44; first compound 2 µM): 0.798
- relative viability (HCC-44; first compound 6.325 µM): 0.346
- relative viability (HCC-44; first compound 20 µM): 0.128
- relative viability (HCC-15; first compound 0.2 µM): 0.844
- relative viability (HCC-15; first compound 0.6325 µM): 0.554
- relative viability (HCC-15; first compound 2 µM): 0.98
- relative viability (HCC-15; first compound 6.325 µM): 0.415
- relative viability (HCC-15; first compound 20 µM): 0.102
- relative viability (NCI-H727; first compound 0.2 µM): 0.852
- relative viability (NCI-H727; first compound 0.6325 µM): 0.969
- relative viability (NCI-H727; first compound 2 µM): 0.733
- relative viability (NCI-H727; first compound 6.325 µM): 0.745
- relative viability (NCI-H727; first compound 20 µM): 0.257
- relative viability (NCI-H2023; first compound 0.2 µM): 0.947
- relative viability (NCI-H2023; first compound 0.6325 µM): 0.716
- relative viability (NCI-H2023; first compound 2 µM): 0.683
- relative viability (NCI-H2023; first compound 6.325 µM): 0.253
- relative viability (NCI-H2023; first compound 20 µM): 0.0707
- relative viability (NCI-H1395; first compound 0.2 µM): 1.14
- relative viability (NCI-H1395; first compound 0.6325 µM): 1.1
- relative viability (NCI-H1395; first compound 2 µM): 0.862
- relative viability (NCI-H1395; first compound 6.325 µM): 0.711
- relative viability (NCI-H1395; first compound 20 µM): 0.515
- relative viability (NCI-H1734; first compound 0.2 µM): 1.18
- relative viability (NCI-H1734; first compound 0.6325 µM): 0.874
- relative viability (NCI-H1734; first compound 2 µM): 0.971
- relative viability (NCI-H1734; first compound 6.325 µM): 0.823
- relative viability (NCI-H1734; first compound 20 µM): 0.198
- relative viability (SW 1573; first compound 0.2 µM): 1.07
- relative viability (SW 1573; first compound 0.6325 µM): 1.15
- relative viability (SW 1573; first compound 2 µM): 1.08
- relative viability (SW 1573; first compound 6.325 µM): 0.993
- relative viability (SW 1573; first compound 20 µM): 0.83
- relative viability (NCI-H1915; first compound 0.2 µM): 0.996
- relative viability (NCI-H1915; first compound 0.6325 µM): 0.659
- relative viability (NCI-H1915; first compound 2 µM): 0.82
- relative viability (NCI-H1915; first compound 6.325 µM): 0.536
- relative viability (NCI-H1915; first compound 20 µM): 0.357
- relative viability (LC-2-ad; first compound 0.2 µM): 0.938
- relative viability (LC-2-ad; first compound 0.6325 µM): 0.506
- relative viability (LC-2-ad; first compound 2 µM): 0.888
- relative viability (LC-2-ad; first compound 6.325 µM): 0.352
- relative viability (LC-2-ad; first compound 20 µM): 0.132
- relative viability (NCI-H2170; first compound 0.2 µM): 0.282
- relative viability (NCI-H2170; first compound 0.6325 µM): 0.294
- relative viability (NCI-H2170; first compound 2 µM): 0.26
- relative viability (NCI-H2170; first compound 6.325 µM): 0.267
- relative viability (NCI-H2170; first compound 20 µM): 0.258
- relative viability (NCI-H358; first compound 0.2 µM): 0.506
- relative viability (NCI-H358; first compound 0.6325 µM): 0.475
- relative viability (NCI-H358; first compound 2 µM): 0.433
- relative viability (NCI-H358; first compound 6.325 µM): 0.36
- relative viability (NCI-H358; first compound 20 µM): 0.303
- relative viability (EMC-BAC-2; first compound 0.2 µM): 0.861
- relative viability (EMC-BAC-2; first compound 0.6325 µM): 0.713
- relative viability (EMC-BAC-2; first compound 2 µM): 0.869
- relative viability (EMC-BAC-2; first compound 6.325 µM): 0.828
- relative viability (EMC-BAC-2; first compound 20 µM): 0.212
- relative viability (HOP-62; first compound 0.2 µM): 0.929
- relative viability (HOP-62; first compound 0.6325 µM): 0.864
- relative viability (HOP-62; first compound 2 µM): 0.414
- relative viability (HOP-62; first compound 6.325 µM): 0.843
- relative viability (HOP-62; first compound 20 µM): 0.158
